Experimental data as given in publication PMC8408311 (Diabetologia, 2021).
Where two headings read alike, the source gives them in different places. Values belong to the compound of their own block, whether it stands above or below them. Where no end group is shown, it is not given here.

Tests used:
[1] = system: H9C2 cells; assay: 2-NBD-Glucose uptake; assay type: cell-based; details: 100nM 30min, 20 minutes
[2] = system: INS1E cells; assay: Fatty acid toxicity in INS1E cells; assay type: cell-based, rat; details: 24 h
[3] = system: Arrb2-/- beta cells; assay: Incretin responses in Arrb2-/- beta cells; assay type: cell-based, mouse
[4] = system: INS-1 832/13 cells; assay: mRNA expression in INS-1 832/13 cells under ER stress; assay type: cell-based, rat
[5] = SURPASS-2, add-on to metformin in type 2 diabetes; assay type: in vivo, human; details: TZP range over 5-15 mg; SEMA 1 mg
[6] = SUSTAIN 10 post hoc analysis by baseline SGLT-2i; assay type: in vivo, human
[7] = RESTORE-2 naive cohort, retrospective propensity score matched study; assay type: in vivo, human
[8] = system: male Wistar rats; assay: 30-min filament middle cerebral artery occlusion; assay type: in vivo, rat; details: 48 h after MCAO; healthy 18 points, maximal deficit 3 points
[9] = Insulin icodec titration trial, CGM hypoglycaemia duration, insulin-naive T2D; assay type: in vivo, human; details: 4.4-7.2 mmol/L ±4 U/day
[10] = assay type: in vivo, human; details: comparator arm

Compound: insulin
- 2-NBD-Glucose uptake after insulin ([1]; H9C2, 20mM glucose 3 months): 17%
- 2-NBD-Glucose uptake after insulin ([1]; H9C2, 20mM glucose 6 months): 8%
- 2-NBD-Glucose uptake after insulin ([1]; H9C2, 30mM glucose 3 months): 15%
- 2-NBD-Glucose uptake after insulin ([1]; H9C2GLUT4, 20mM glucose 3 months): 31%
- 2-NBD-Glucose uptake after insulin ([1]; H9C2GLUT4, 20mM glucose 6 months): 27%
- 2-NBD-Glucose uptake after insulin ([1]; H9C2GLUT4, 30mM glucose 3 months): 43%

Compound: CCCCCCCCCCCCCCCC(=O)O [PA, palmitate]
- Viability decrease stronger than in INS1E-ctr ([2]; INS1E-SPL cells, 500 μM): ~ 25%
- Cell viability loss ([2]; INS1E-SPP cells, 500 μM): 20%

Compound: glucagon-like peptide 1 (HAEGTFTSDVSSYLEGQAAKEFIAWLVKGR; ends and bridges not checked; UniProt P01275 98-127, looked up) [GLP-1]
- Reduction of ERK1/2 activation in Arrb2-/- beta cells [3]: ~ 50%

Compound: C/C=C(/C)C(=O)O[C@H]1C(C)=C2[C@H]([C@@H]1OC(=O)CCCCCCC)[C@@](C)(OC(C)=O)C[C@H](OC(=O)CCC)[C@@]1(O)[C@H]2OC(=O)[C@@]1(C)O [thapsigargin]
- Decrease of insulin mRNA expression (Ins1 and Ins2) [4]: 85%
- Increase of Atf4 mRNA expression [4]: 3.0 fold
- Increase of Atf6 mRNA expression [4]: 1.8 fold
- Increase of Cebpg mRNA expression [4]: 3.7 fold
- Increase of Xbp1s mRNA expression [4]: 2.9 fold

- Diarrhoea [5]: 12%
- Nausea [5]: 18%
- Vomiting [5]: 8%
Compound: CC[C@H](C)[C@H](NC(=O)[C@H](Cc1ccccc1)NC(=O)[C@H](CCC(=O)O)NC(=O)[C@H](CCCCNC(=O)COCCOCCNC(=O)COCCOCCNC(=O)CC[C@H](NC(=O)CCCCCCCCCCCCCCCCC(=O)O)C(=O)O)NC(=O)[C@H](C)NC(=O)[C@H](C)NC(=O)[C@H](CCC(N)=O)NC(=O)CNC(=O)[C@H](CCC(=O)O)NC(=O)[C@H](CC(C)C)NC(=O)[C@H](Cc1ccc(O)cc1)NC(=O)[C@H](CO)NC(=O)[C@H](CO)NC(=O)[C@@H](NC(=O)[C@H](CC(=O)O)NC(=O)[C@H](CO)NC(=O)[C@@H](NC(=O)[C@H](Cc1ccccc1)NC(=O)[C@@H](NC(=O)CNC(=O)[C@H](CCC(=O)O)NC(=O)C(C)(C)NC(=O)[C@@H](N)Cc1cnc[nH]1)[C@@H](C)O)[C@@H](C)O)C(C)C)C(=O)N[C@@H](C)C(=O)N[C@@H](Cc1c[nH]c2ccccc12)C(=O)N[C@@H](CC(C)C)C(=O)N[C@H](C(=O)N[C@@H](CCCNC(=N)N)C(=O)NCC(=O)N[C@@H](CCCNC(=N)N)C(=O)NCC(=O)O)C(C)C [SEMA, semaglutide]

Compound: NCCCC(O)(P(=O)(O)O)P(=O)(O)O [alendronate]
- Crude OR of developing type 2 diabetes (ever use): 0.93
- Multiple adjusted OR of developing type 2 diabetes (ever use): 0.64
- Adjusted OR of developing type 2 diabetes (more than 8 years of use): 0.47

Compound: CC[C@H](C)[C@H](NC(=O)[C@H](Cc1ccccc1)NC(=O)[C@H](CCC(=O)O)NC(=O)[C@H](CCCCNC(=O)COCCOCCNC(=O)COCCOCCNC(=O)CC[C@H](NC(=O)CCCCCCCCCCCCCCCCC(=O)O)C(=O)O)NC(=O)[C@H](C)NC(=O)[C@H](C)NC(=O)[C@H](CCC(N)=O)NC(=O)CNC(=O)[C@H](CCC(=O)O)NC(=O)[C@H](CC(C)C)NC(=O)[C@H](Cc1ccc(O)cc1)NC(=O)[C@H](CO)NC(=O)[C@H](CO)NC(=O)[C@@H](NC(=O)[C@H](CC(=O)O)NC(=O)[C@H](CO)NC(=O)[C@@H](NC(=O)[C@H](Cc1ccccc1)NC(=O)[C@@H](NC(=O)CNC(=O)[C@H](CCC(=O)O)NC(=O)C(C)(C)NC(=O)[C@@H](N)Cc1cnc[nH]1)[C@@H](C)O)[C@@H](C)O)C(C)C)C(=O)N[C@@H](C)C(=O)N[C@@H](Cc1c[nH]c2ccccc12)C(=O)N[C@@H](CC(C)C)C(=O)N[C@H](C(=O)N[C@@H](CCCNC(=N)N)C(=O)NCC(=O)N[C@@H](CCCNC(=N)N)C(=O)NCC(=O)O)C(C)C [semaglutide]
- Premature treatment discontinuations due to AEs ([6]; with SGLT-2i): 5.5%
- Premature treatment discontinuations due to AEs ([6]; without SGLT-2i): 13.4%

Compound: Insulin Glargine 300U/mL [Gla-300]
- Between group mean difference in HbA1c at 6 months, Gla-300 vs IDeg-100 ([7]; 95%CI -0.29;0.27): 0.01%
- Incidence rate of blood glucose <54 mg/dl ([7]; during 6 months): 0.02 episodes per patient-months
- Incidence rate of blood glucose ≤70 mg/dl ([7]; during 6 months): 0.13 episodes per patient-months
- FBG change at 6 months ([7]; in vivo): -63 mg/dL
- FBG reduction at 6 months ([7]; in vivo): 3.5 mmol/L
- HbA1c reduction from baseline to 12 months ([7]; in vivo): -1.71%
- HbA1c change from baseline to 6 months ([7]; propensity score matched, 357 per cohort): -1.70%

Compound: CN(C)C(=N)N=C(N)N [MET, metformin]
- Garcia score (neurological deficit) [8]: 12.0 (6.5; 12.5) points

Compound: insulin glargine U100 [IGlar U100]
- Overall hypoglycaemic episode duration, median (IQR) [9]: 35.0 (20.0, 70.0) min
- Overall hypoglycaemic episode duration, median (IQR) [10]: 35.0 (20.0, 60.0) min

Compound: CCCCCCCC/C=C\CCCCCCCC(=O)O [OA, oleate]
- Cell viability ([2]; INS1E-ctr cells, 500 μM each fatty acid, MTT): 91%
